ChEMBL document CHEMBL5614382, “Discovery of a new 1-(phenylsulfonyl)-1H-indole derivative targeting the EphA2 receptor with antiproliferative activity on U251 glioblastoma cell line” (Eur J Med Chem, 2024)
Activity calls are given as the source filed them. The rule behind the calls is not given here.

Experiments:
LOUCY [1] = assay: Antiproliferative activity against human LOUCY cells assessed as reduction in cell viability at 30 uM measured after 72 hrs by Celltiter-glo ATP based assay; type: functional
LOUCY [2] = assay: Antiproliferative activity against human LOUCY cells harbouring EPHA2 knockout assessed as reduction in cell viability at 1 to 10 uM measured after 72 hrs by Celltiter-glo ATP based assay; type: functional; conditions: dose 1-10 µM

Compound: C[C@H](CCC(=O)N[C@H](CC(=O)O)Cc1cn(S(=O)(=O)c2ccc(C(F)(F)F)cc2)c2ccccc12)[C@H]1CC[C@H]2[C@@H]3CC=C4C[C@@H](O)CC[C@]4(C)[C@H]3CC[C@]12C
- Activity (LOUCY [1]): Active
- Activity (LOUCY [2]): inactive
